{"source": "paper PMC5768801", "about": "“The PII signaling protein from red algae represents an evolutionary link between cyanobacterial and Chloroplastida PII proteins” (Scientific Reports, 2018)", "key": {"PhyscoPII": {"biological_target": "PhyscoPII", "assay": "ITC binding of small effector molecules to plant-moss PhyscoPII", "design": "species or system Physcomitrella patens", "description": "(§1) To gain additional insights into the ligand binding properties of PpPII in comparison to cyanobacterial and chloroplastid PII proteins, isothermal titration calorimetry (ITC) experiments were performed using highly purified Strep-tagged or His-tagged recombinant PpPII, SyPII, CrPII, and PhyscoPII proteins (Supplementary Fig. S1) with different protein/ligand/ concentrations to determine the best fitting conditions of the binding model. The titration experiments were repeated with different protein preparations to confirm the reproducibility of the results. The raw isothermal data were fitted into one-binding site as well as three-sequential binding sites to define the best fitting model. Fitting using a one binding site model states an average Kd value for all available binding sites and the mean of the stoichiometry of bound ligands.\n(§2) The ITC experiments were done using a VP-ITC microcalorimeter (MicroCal, LCC). All details for determination of binding constants for small effector molecules using ITC are fully described in the supplementary information. Heat isotherms of the dilution of the ligand in the cell buffer were collected in a blank run for each experiment in the absence of protein. The binding isotherms were calculated from received data and fitted to one-site and three-sequential binding sites models using the MicroCal ORIGIN software (Northampton) as described. All titrations were performed in duplicates with different purification batches of recombinant PII proteins. The association binding constant (Ka) was generated from the software by de-convolution and curve fitting. For calculation of dissociation constant (Kd), the Ka value was inversed.\n(§3) Supplementary Information […]\n(§4) Determination of Binding Constants for Small Effector Molecules using Isothermal […]\n(§5) The binding of the small effector molecules to the recombinant PII proteins was tested using isothermal titration calarmity (ITC); VP-ITC microcalorimeter (MicroCal). All titrations were performed on 20°C using […] injection syringe with injection 6 µl or 10 µl of the tested ligands for 45 or 29 times, respectively into the cell (1.4 ml) with continuous stirring at 155 rpm. All tested ligands were high grade, prepared freshly in the same buffer of the protein and purchased from Sigma-Aldrich. Heat isotherms for the dilution of the ligand in the cell buffer were collected in a blank run in the absence of protein. The received calorimetric data were analyzed using MicroCal Origin software and fitted into one-site and three-sequential binding sites models, as indicated by the manufacture for calculation of binding isotherms9. For data reproducibility, the titrations were performed in duplicates with different purification batches of recombinant PII proteins. The association binding constant (Ka) was generated from the software by de-convolution and curve fitting. For calculation of dissociation constant (Kd), the Ka value was inversed.\n5 mM MgCl2, 0.5 mM EDTA, and 10% glycerol (pH 7.6). […]\nFor determination the binding isotherms of plant-moss PhyscoPII protein, a strep-tagged recombinant protein (5 or 6 µM trimeric concentration) was used in system composed of 20 mM"}, "SyPII [1]": {"biological_target": "T1, SyPII (Synechococcus elongatus, UniProt P0A3F4)", "T1 construct": "Strep-tag; made in house", "T1 sequence (P0A3F4 whole entry)": "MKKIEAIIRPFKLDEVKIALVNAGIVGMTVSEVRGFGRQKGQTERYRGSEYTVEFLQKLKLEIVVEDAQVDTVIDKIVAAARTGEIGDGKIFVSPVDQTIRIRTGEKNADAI", "assay": "ITC binding of small effector molecules to cyanobacterial SyPII", "design": "species or system Synechococcus elongatus PCC 7942", "description": "as §1, §2, §3, §4\nas §5, with “inversed. […]” for “inversed.”\nFor determination the binding isotherms of cyanobacterial SyPII protein, a strep-tagged recombinant protein (20 µM trimeric concentration) was overexpressed and used as described previously9, 15, in a buffer composed of 10 mM Hepes-NaOH, 50 mM KCl, 50 mM NaCl, and 1"}, "CrPII": {"biological_target": "CrPII", "assay": "ITC binding of small effector molecules to green algal CrPII", "design": "species or system Chlamydomonas reinhardtii", "description": "as §1, §2, §3, §4\nas §5, with “inversed. […]” for “inversed.”"}, "SyPII [2]": {"biological_target": "T1, SyPII", "details": "cited from earlier work"}}, "note": "“Also recorded” adds a separate entry of the source. Where two headings read alike, the source gives them in different places."}
{"molecule": "Nc1ncnc2c1ncn2[C@@H]1O[C@H](COP(=O)(O)OP(=O)(O)O)[C@@H](O)[C@H]1O", "note": "[ADP]", "values": [{"measurement": "Average Kd (one-site binding model)", "setting": "PhyscoPII; in presence 2-OG", "value": "No binding"}, {"measurement": "Kd1 (three-sites binding model)", "setting": "PhyscoPII; in presence 2-OG", "value": "No binding"}, {"measurement": "Kd2 (three-sites binding model)", "setting": "PhyscoPII; in presence 2-OG", "value": "No binding"}, {"measurement": "Kd3 (three-sites binding model)", "setting": "PhyscoPII; in presence 2-OG", "value": "No binding"}, {"measurement": "Average Kd (one-site binding model)", "setting": "PhyscoPII; titrant alone", "value": "unable to detect any binding; also recorded: No binding"}, {"measurement": "Kd1 (three-sites binding model)", "setting": "PhyscoPII; titrant alone", "value": "No binding"}, {"measurement": "Kd2 (three-sites binding model)", "setting": "PhyscoPII; titrant alone", "value": "No binding"}, {"measurement": "Kd3 (three-sites binding model)", "setting": "PhyscoPII; titrant alone", "value": "No binding"}, {"measurement": "ADP concentration at which the enthalpy reached a maximum (biphasic titration curve)", "setting": "SyPII [1]; ADP titrated in the presence of 1 mM 2-OG", "value": "80.0 ± 7.1", "unit": "µM"}, {"measurement": "Kd", "setting": "SyPII [1]; Average Kd (one-site binding model), in presence 2-OG (1 mM) and 150 µM ADP", "value": "45.8 ± 44", "unit": "µM"}, {"measurement": "Kd", "setting": "SyPII [1]; Kd1 (three-sites binding model), in presence 2-OG (1 mM) and 150 µM ADP", "value": "10.7 ± 1.9", "unit": "µM"}, {"measurement": "Kd", "setting": "SyPII [1]; Kd2 (three-sites binding model), in presence 2-OG (1 mM) and 150 µM ADP", "value": "26.4 ± 4.2", "unit": "µM"}, {"measurement": "Kd", "setting": "SyPII [1]; Kd3 (three-sites binding model), in presence 2-OG (1 mM) and 150 µM ADP", "value": "101 ± 103", "unit": "µM"}, {"measurement": "N, number of calculated binding sites (one-site binding model)", "setting": "SyPII [1]; in presence 2-OG (1 mM) and 150 µM ADP", "value": 4.0}, {"measurement": "Average Kd (one-site binding model)", "setting": "CrPII; in presence 2-OG (2 mM)", "value": "no ADP binding"}, {"measurement": "Kd1 (three-sites binding model)", "setting": "CrPII; in presence 2-OG (2 mM)", "value": "No binding"}, {"measurement": "Kd2 (three-sites binding model)", "setting": "CrPII; in presence 2-OG (2 mM)", "value": "No binding"}, {"measurement": "Kd3 (three-sites binding model)", "setting": "CrPII; in presence 2-OG (2 mM)", "value": "No binding"}, {"measurement": "Average Kd (one-site binding model)", "setting": "CrPII; titrant alone", "value": "unable to notice any binding; also recorded: No binding"}, {"measurement": "Kd1 (three-sites binding model)", "setting": "CrPII; titrant alone", "value": "No binding"}, {"measurement": "Kd2 (three-sites binding model)", "setting": "CrPII; titrant alone", "value": "No binding"}, {"measurement": "Kd3 (three-sites binding model)", "setting": "CrPII; titrant alone", "value": "No binding"}, {"measurement": "Kd", "setting": "SyPII [2]; read-out: Kd1 (three-sites binding model), titrant alone, given in parentheses for comparison", "value": 10.6, "unit": "µM"}, {"measurement": "Kd", "setting": "SyPII [2]; read-out: Kd2 (three-sites binding model), titrant alone, given in parentheses for comparison", "value": 19.3, "unit": "µM"}, {"measurement": "Kd", "setting": "SyPII [2]; read-out: Kd3 (three-sites binding model), titrant alone, given in parentheses for comparison", "value": 133, "unit": "µM"}]}
